Measurements published in patent US20070197389A1 (priority 2004, published 2007).

What was measured:
Pyricularia oryzae = format: cell-based; conditions: 125 ppm active compound, microtiter plate, absorption at 405 nm on day 7 after inoculation, relative to active compound-free control
Phytophthora infestans = format: in vivo; conditions: 250 ppm active compound, potted tomato plants, sprayed 1 day before infection, assessed after 6 days; untreated plants 70% infected

Structure (SMILES) | relative growth (Pyricularia oryzae) | infection (Phytophthora infestans)
CC(=O)Nc1c(-c2c(F)cc(F)cc2F)c(Cl)nc2ncnn12 [Example 4, N-[5-Chloro-6-(2,4,6-trifluorophenyl)(1,2,4-triazolo[1,5-a]pyrimidin-7-yl)]acetamide] | less than or equal to 1% | –
CCC(=O)Nc1c(-c2c(F)cc(F)cc2F)c(Cl)nc2ncnn12 [Example 5, N-[5-chloro-6-(2,4,6-trifluorophenyl)(1,2,4-triazolo-[1,5-a]pyrimidin-7-yl)]propionamide] | – | less than or equal to 15%
